From patent EP4775208A1, “USE OF PRMT5 INHIBITOR IN TREATMENT OF TUMORS OR CANCERS” (Apeiron Therapeutics (Hong Kong) Ltd., priority 2023, dated 2025)
Like-named read-outs stand apart in the source and are kept apart here.

How the values were obtained:
[1] = test system: HCT-116 MTAP(-/-) deficient cells; assay: Inhibition of proliferation of HCT-116 MTAP(-/-) deficient cells (Cell-Titer Glo); format: cell-based; details: 8 days
Method in brief: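 Cells in log-phase growth, RPMI-1640 with 10% FBS, seeded and left overnight at 37°C, 5% CO2. Compound tested at 0–10,000 nM (10 points, 3-fold, 0.1% DMSO) for 8 days at 37°C, 5% CO2. Viability read by CellTiter-Glo luminescence.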

[2] = test system: HCT-116 MTAP wild-type cells; assay: Inhibition of proliferation of HCT-116 MTAP wild-type cells (Cell-Titer Glo); format: cell-based; details: 8 days
Method in brief: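 MTAP wild-type HCT-116 cells were seeded, cultured overnight and then exposed to compound from 10,000 nM down in a 10-point, 3-fold series (0.1% DMSO). Plates were incubated 8 days at 37°C, 5% CO2. Proliferation was read by Cell-Titer Glo viability luminescence.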

[3] = test system: LU99 MTAP-overexpressing cells; assay: Inhibition of proliferation of LU99 MTAP-overexpressing cells (CellTiter-Glo); format: cell-based; details: cell proliferation, 6 days
Protocol: Test 4: Assay for Inhibitory Activity of Compounds against LU99 MTAP-Overexpressing Cell Proliferation
Materials and Cells: The LU99 MTAP-overexpressing cell line was purchased from Cobioer Biosciences (China). Cell culture media and fetal bovine serum (FBS) were purchased from Thermo Fisher Scientific (USA). 384-well plates were purchased from PerkinElmer (USA). The CellTiter-Glo assay kit was purchased from Promega (USA).
Cell Culture: LU99 MTAP-overexpressing cells were cultured in a medium supplemented with 10% fetal bovine serum (FBS) at 37°C with 5% CO2. Only cells in the logarithmic growth phase were used for experiments.
(§1) Cell Proliferation Inhibition Assay: The antiproliferative activity of the compounds against LU99 MTAP-overexpressing cells was assessed using the CellTiter-Glo assay kit. Cell suspensions were adjusted to the appropriate density and seeded into 384-well plates at a volume of 40 µL per well, then incubated overnight at 37°C with 5% CO2. Compounds (40 nL) were added to each well to achieve final concentrations ranging from 0 to 10,000 nM (starting concentration 10,000 nM, 2.5-fold serial dilutions, 10 dose points), with a final DMSO concentration of 0.2%. The cell plates were incubated at 37°C with 5% CO2 for 6 days. Subsequently, 40 µL of CellTiter-Glo reagent was added to measure cell viability.

LN18 MTAP(-/-) cells = assay: Inhibition of proliferation of LN18 MTAP(-/-) cells (CellTiter-Glo); format: cell-based; details: cell proliferation, 7 days
Protocol: Test 5: Assay for Inhibitory Activity of Compounds against LN18 MTAP(-/-) Cell Proliferation
Materials and Cells: The LN18 MTAP(-/-) cell line was provided by Cobioer Biosciences (China). Cell culture media, fetal bovine serum (FBS), and penicillin-streptomycin were purchased from Thermo Fisher Scientific (USA). 384-well plates were purchased from PerkinElmer (USA). The CellTiter-Glo assay kit was purchased from Promega (USA).
Cell Culture: LN18 MTAP(-/-) cells were cultured in a medium supplemented with 10% fetal bovine serum (FBS) and 1% penicillin-streptomycin at 37°C with 5% CO2. Only cells in the logarithmic growth phase were used for experiments.
as §1, with “LN18 MTAP(-/-)” for “LU99 MTAP-overexpressing”, “1,000” for “10,000”, “3-fold” for “2.5-fold”, “9” for “10”, “[…].” for “0.2%.”, “7” for “6”

Aspc-1 = assay: Mini cell panel: inhibition of proliferation of Aspc-1 cells; format: cell-based
Source text: Test 9: Mini Cell Panel: Assay for Inhibitory Activity of Compounds against Proliferation of 20 Tumor Cell Lines
Materials and Cells: Fifteen MTAP(-/-) cell lines and five MTAP wild-type cell lines were purchased from ATCC (USA). Cell culture media, fetal bovine serum (FBS), and penicillin-streptomycin were purchased from Thermo Fisher Scientific (USA). 384-well plates were purchased from PerkinElmer (USA). The CellTiter-Glo assay kit was purchased from Promega (USA). Paclitaxel was used as the control compound.

NCI-H838 MTAP(-/-) cells = assay: Inhibition of proliferation of NCI-H838 MTAP(-/-) cells (CellTiter-Glo); details: read-out: IC50(nM) NCI-H838 MTAP(-/-)
[4] = Homo sapiens, ASPC1, MTAP Wild type

Compound	IC50 [1]	IC50 [2]	IC50 [3]	IC50 (LN18 MTAP(-/-) cells)	IC50 (Aspc-1; MTAP Wild type)	IC50 (NCI-H838 MTAP(-/-) cells; cell proliferation, 6 days, CellTiter-Glo)	IC50 ([1]; Homo sapiens, HCT-116, 192 h)	IC50 ([2]; Homo sapiens, HCT-116, 192 h)	IC50 ([3]; Homo sapiens, Lu-99, 144 h)	IC50 (LN18 MTAP(-/-) cells; Homo sapiens, LN-18, 168 h)	IC50 (NCI-H838 MTAP(-/-) cells; Homo sapiens, NCI-H838, 144 h)	IC50 (Aspc-1; [4])
(S)-4-amino-7-fluoro-N-methyl-N-(6-(triflu oromethyl)-2,3-dihydr obenzofuran-3-yl)imi dazo[1,5-a]quinoxalin e-8-carboxamide [Example 29]	7.1 nM	935 nM	1490 nM	5.42 nM	> 10000 nM	76.8 nM	–	–	–	–	–	–
[2H]C([2H])([2H])N(C(=O)c1ccc2nc(N)c3cncn3c2c1)[C@@H]1COc2cc(C(F)(F)F)ccc21 [Example 16, (S)-4-amino-N-(methyl-d3)-N-(6-(trifluoromethyl)-2,3-dihydrobenzofuran-3-yl)imidaz o[1,5-a]quinoxaline-8-carboxamide]	–	–	–	–	–	–	5.6 nM	1080 nM	2480 nM	6.57 nM	66.8 nM	–
CN(C(=O)c1cc2c(cn1)nc(N)c1cncn12)[C@@H]1COc2cc(C(F)(F)F)ccc21 [Example 4, (S)-4-amino-N-methy 1-N-(6-(trifluoromethy 1)-2,3-dihydrobenzofuran-3-yl)imidazo[1,5-a]pyrido[3,4-e]pyrazine-8-carboxamide]	–	–	–	–	–	–	9.9 nM	1710 nM	–	7.85 nM	–	6600 nM
[2H]C([2H])([2H])N(C(=O)c1cc2c(cc1F)nc(N)c1cncn12)[C@@H]1COc2cc(C(F)(F)F)ccc21 [Example 41, (S)-4-amino-7-fluoro-N-(methyl-d3)-N-(6-(trifluoromethyl)-2,3-di hydrobenzofuran-3-yl)imidazo[1,5-a]quinox aline-8-carboxamide]	–	–	–	–	–	–	11 nM	1140 nM	1640 nM	14.5 nM	57.6 nM	–
CN(C(=O)c1ccc2nc(N)c3cncn3c2c1)[C@@H]1COc2cc(C(F)(F)F)ccc21 [Example 107, (S)-4-amino-N-methy 1-N-(6-(trifluoromethy 1)-2,3-dihydrobenzofuran-3-yl)imidazo[1,5-a]quinoxaline-8-carboxamide]	–	–	–	–	–	–	7.4 nM	1730 nM	2360 nM	11.1 nM	67.8 nM	> 10000 nM
